The values below come from patent US11207313B2, “Pharmaceutical composition” (Novartis AG, priority 2017, dated 2021).

What all share (format): physicochemical
The nature of data set [1]: Biopharmaceutics classification and water solubility statement. From the text: The design of a pharmaceutical composition, a pharmaceutical dosage form, as well as a commercially viable process to prepare the pharmaceutical composition, for a non-bile FXR agonist, such as 2-[(1R,3R,5S)-3-({5-cyclopropyl-3-[2-(trifluoromethoxy)phenyl]-1,2-oxazol-4-yl}methoxy)-8-azabicyclo[3.2.1]octan-8-yl]-4-fluoro-1,3-benzothiazole-6-carboxylic acid, or a pharmaceutically acceptable salt thereof, is especially challenging. […] For example, due to its very high potency a low dosage is needed, generating unwanted formulation issues such as content uniformity, and additional handling restrictions on a large manufacturing scale. […] Accordingly, a suitable and robust solid pharmaceutical composition overcoming the above problems needs to be developed.

Data set [2] in a line: Solubility of Compound A in formulations and precipitation on storage at room temperature.
Data set [3] is described as follows: Precipitation of Compound A under dispersion in pH 6.5 buffer (microscope). As to conditions: room temperature, after at least 6 hours, all developed formulations. From the text: Then, the precipitation of Compound A in each formulation was controlled by microscope under dispersion in pH 6.5 buffer at room temperature.

Turning to `O=C(O)c1cc(F)c2nc(N3C4CCC3CC(OCc3c(-c5ccccc5OC(F)(F)F)noc3C3CC3)C4)sc2c1` [Compound A, 2-[(1R,3R,5S)-3-({5-cyclopropyl-3-[2-(trifluoromethoxy)phenyl]-1,2-oxazol-4-yl}methoxy)-8-azabicyclo[3.2.1]octan-8-yl]-4-fluoro-1,3-benzothiazole-6-carboxylic acid], in data set [1], the “Biopharmaceutics classification system class” value is reported as “class IV” and the Water solubility entry was “low water solubility”. Besides, the Precipitation after storage result in data set [2] (7 days storage at room temperature, all formulations) is listed as “no precipitation was observed”. Further, the “Solubility of Compound A in formulations” value in data set [2] (all formulations of Tables 1 to 3 combined with Compound A) is “fully soluble”. The “Precipitation of Compound A under dispersion” value in data set [3] was “No precipitation”.
